The values that follow come from patent publication US10238623B2, “C14-hydroxyl esterified amino acid derivative of triptolide, and preparation method and use thereof” (HANGZHOU WEBEN PHARMACEUTICALS INC, priority 2015, dated 2019).

The nature of series [1]: Body weight and organ examination of tumour-bearing mice. Particulars: for Body weight: mice bearing KG-1a and THP-1, 14 days, individual mice, listed as DV. The class given is in vivo, NOD/SCID mice. The procedure:
(§1) 7-week old female NOD/SCID mice were taken and inoculated subcutaneously with 1×10^7 cells (0.2 ml) per mouse in axilla, with human acute myelogenous leukemia KG-1a cells on the left and human acute monocytic leukemia THP-1 cells on the right. When tumors grew to a tumor size of around 0.5 cm, the mice were randomized into groups with 3 mice each. An equivalent amount of PBS was used for the control group, and the 14-D-Valine-TPL group was divided into two groups with 0.2 mg/kg body weight and 0.4 mg/kg body weight: intragastric administration 2 times a day (one at 8 a.m. and one at 4 p.m.) for consecutive 14 days of treatment. An observation was made for total 30 days, during which the conditions of the mice such as tumor size, weight, activity, diet, and the like were measured. At the end of the experiment, the mice were sacrificed, tumor tissues were taken and the tumors were weighed, and major organs and tissues of the mice such as liver, spleen, heart, lung, large intestine, small intestine, and the like were examined.
as §1, with “the left.” for “the left and human acute monocytic leukemia THP-1 cells on the right.”, “around 50-100 mm^3,” for “around 0.5 cm,”, “the TPL-LLV” for “the 14-D-Valine-TPL”, “with 0.23” for “with 0.2”, “and 0.46” for “and 0.4”, “intragastric administration,” for “intragastric administration”
as §1, with “the left.” for “the left and human acute monocytic leukemia THP-1 cells on the right.”, “around 50-100 mm^3,” for “around 0.5 cm,”, “the TPL-DLV” for “the 14-D-Valine-TPL”, “with 0.23” for “with 0.2”, “and 0.46” for “and 0.4”, “intragastric administration,” for “intragastric administration”
7-week old female NOD/SCID mice were taken and inoculated subcutaneously with 1×10^7 cells (0.2 ml) per mouse in axilla, with human acute myelogenous leukemia KG-1a cells on the left. When tumors grew to a tumor size of around 50-100 mm^3, the mice were randomized into groups with 3 mice each. An equivalent amount of PBS was used for the control group, and the TPL-DLV group was divided into two groups with 0.32 mg/kg body weight and 0.64 mg/kg body weight: intragastric administration, 2 times a day (one at 8 a.m. and one at 4 p.m.) for consecutive 14 days of treatment. An observation was made for total 30 days, during which the conditions of the mice such as tumor size, weight, activity, diet, and the like were measured. At the end of the experiment, the mice were sacrificed, tumor tissues were taken and the tumors were weighed, and major organs and tissues of the mice such as liver, spleen, heart, lung, large intestine, small intestine, and the like were examined. […]

Series [2] relates to U937. Nature of the series: MTT growth inhibition, U937 cells, 72 h. The class given is cell-based. Particulars: Homo sapiens, U-937. The procedure: (§2) 5000 well-grown leukemia cells were taken and seeded into wells of a 96-well cell culture plate. The medium was 1640 cell medium containing 10% fetal bovine serum. 14-D-Valine-TPL with different concentrations was added, and after being uniformly mixed, the plate was placed in a carbon dioxide (5% CO2) cell incubator, and incubated at 37° C. for 72 hours. The concentration of live cells was then determined using the MTT assay. In this experiment, the cell viability in the control group (without the compound treatment) was set to be 100%, and the cell viability (%) after the action of the compound and the half maximal growth inhibitory concentration of leukemia cells at 72 hours (IC50 value at 72 hours) were calculated.

The test system of series [3] is Molt-4. Nature of the series: MTT growth inhibition, Molt-4 cells, 72 h. The class given is cell-based, human. Particulars: Homo sapiens, MOLT-4, 72 h. The method, then:
5000 well-grown leukemia cells or normal human blood cells were taken and seeded into wells of a 96-well cell culture plate. The medium was 1640 cell medium containing 10% fetal bovine serum. 14-D-Valine-TPL with different concentrations was added, and after being uniformly mixed, the plate was placed in a carbon dioxide (5% CO2) cell incubator, and incubated at 37° C. for 72 hours. The concentration of live cells was then determined using the MTT assay. In this experiment, the cell viability in the control group (without the compound treatment) was set to be 100%, and the cell viability (%) after the action of the compound the half maximal growth inhibitory concentration of leukemia cells at 72 hours (IC50 value at 72 hours) and the therapeutic window index were calculated. Therapeutic window index=IC50 value of normal blood cells/IC50 value of leukemia cells. […] A larger therapeutic window indicates a better selectivity of the compound for tumor cells.
as §2
as §2, with “well-grown lymphocytes” for “well-grown leukemia cells”

Series [4] deals with human acute myelogenous leukemia KG-1a cells. Nature of the series: KG-1a subcutaneous xenograft in NOD/SCID mice. The class given is in vivo. The settings on record: for Tumor weight: KG-1a, individual mice, end of experiment. The procedure:
as §1
(§3) 7-week old female NOD/SCID mice were taken and inoculated subcutaneously with 1×10^7 cells (0.2 ml) per mouse in axilla, with human acute myelogenous leukemia KG-1a cells on the left. When tumors grew to a tumor size of around 50-100 mm^3, the mice were randomized into groups with 3 mice each. An equivalent amount of PBS was used for the control group, and the TPL-LLV group was divided into two groups with 0.23 mg/kg body weight and 0.46 mg/kg body weight: intragastric administration, 2 times a day (one at 8 a.m. and one at 4 p.m.) for consecutive 14 days of treatment. An observation was made for total 30 days, during which the conditions of the mice such as tumor size, weight, activity, diet, and the like were measured. At the end of the experiment, the mice were sacrificed, tumor tissues were taken and the tumors were weighed, and major organs and tissues of the mice such as liver, spleen, heart, lung, large intestine, small intestine, and the like were examined.
as §3, with “TPL-DLV” for “TPL-LLV”
7-week old female NOD/SCID mice were taken and inoculated subcutaneously with 1×10^7 cells (0.2 ml) per mouse in axilla, with human acute myelogenous leukemia KG-1a cells on the left. When tumors grew to a tumor size of around 50-100 mm^3, the mice were randomized into groups with 3 mice each. An equivalent amount of PBS was used for the control group, and the TPL-DLV group was divided into two groups with 0.32 mg/kg body weight and 0.64 mg/kg body weight: intragastric administration, 2 times a day (one at 8 a.m. and one at 4 p.m.) for consecutive 14 days of treatment. An observation was made for total 30 days, during which the conditions of the mice such as tumor size, weight, activity, diet, and the like were measured. At the end of the experiment, the mice were sacrificed, tumor tissues were taken and the tumors were weighed, and major organs and tissues of the mice such as liver, spleen, heart, lung, large intestine, small intestine, and the like were examined.

Setting [5] is: dose of 0.4 mg per kilogram of the body weight.

Several values for one entry are separate records, joined by “and”; a condition that tells them apart may be missing. Equal values may be shown once.

As to `CC(C)[C@@H](N)C(=O)O[C@@H]1[C@@]2(C(C)C)O[C@H]2[C@@H]2O[C@]23[C@]12O[C@H]2C[C@H]1C2=C(CC[C@@]13C)C(=O)OC2` [14-D-Valine-TPL, 14-Dextro-Valine-Triptolide], in series [1] (setting [5]), the “weight loss in the mice (in words)” value is reported as “no significant weight losses”. Besides, the Body weight in series [1] (0.2 mg/kg intragastric 2 times a day, mice bearing KG-1a xenografts) was 18.5 g and 20.2 g and 19.9 g and 18.1 g and 19.0 g and 20.4 g; in series [1] (0.2 mg/kg intragastric 2 times a day, mice bearing THP-1 xenografts) it was 18.5 g and 20.2 g and 19.9 g and 18.1 g and 19.0 g and 20.4 g; in series [1] (0.4 mg/kg intragastric 2 times a day, mice bearing KG-1a xenografts), 20.4 g and 21.0 g and 21.1 g and 21.4 g and 20.8 g and 19.1 g; in series [1] (0.4 mg/kg intragastric 2 times a day, mice bearing THP-1 xenografts), 20.4 g and 21.0 g and 21.1 g and 21.4 g and 20.8 g and 19.1 g. Also, in series [1] (mice of Example 9), the “anatomical examination of major organs (heart, lung, liver, spleen, large intestine, small intestine)” value is “no significant abnormalities”. Moreover, the IC50 (in general, the concentration needed to halve the response being measured) in series [2] is 60 nM; in series [3], 10.8 nM. In addition, in series [4] (KG-1a xenograft, intragastric 2 times a day, 14 days, dose-dependent effect), the “growth of KG-1a in mice in vivo (in words)” value is “significantly inhibit the growth”. Also, the Tumor weight was 0.42 g and 1.49 g and 0.06 g and 0.98 g and 0.2 g and 0.5 g in series [4] (trifluoroacetate 0.2 mg/kg intragastric 2 times a day, 14 days, listed as DV); 0 g in series [4] (trifluoroacetate 0.4 mg/kg intragastric 2 times a day, 14 days). Further, in series [4] (setting [5]), the “regression of KG-1a xenograft tumors” value was “complete regression”.
